From US20110086759A1, “CHEMICAL COMPOUNDS” (SYNGENTA CROP PROTECTION, INC., priority 2007, published 2011)

Assays:
Format in all cases: in vivo
[1] = tested on: Amaranthus retoflexus (AMARE); assay: Pre-emergence biological efficacy, glasshouse pot test; conditions: Amaranthus retroflexus, 312 h; pre-emergence, rate 1,000 g/ha, evaluated after 13 days (100=total damage to plant; 0=no damage); read-out: Percentage damage caused to weed species, AMARE
Outline: (§1)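 Standard soil, pots, sown then sprayed at day 1 with 1000 or 250 g/ha test compound. Glasshouse: 24/16 °C, 14 h photoperiod, 65% humidity, twice-daily watering. Evaluation day 13, 0–100 damage score.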

[2] = tested on: Echinochloa crus-galli (ECHCG); assay: as above; conditions: 312 h, pre-emergence, rate 1,000 g/ha, evaluated after 13 days (100=total damage to plant; 0=no damage), read-out: Percentage damage caused to weed species, ECHCG
Outline: as §1

Setaria faberi (SETFA) [3] = assay: as above; conditions: 312 h, pre-emergence, rate 1,000 g/ha, evaluated after 13 days (100=total damage to plant; 0=no damage), read-out: Percentage damage caused to weed species, SETFA
Outline: as §1

[4] = tested on: Alopecurus myosuroides (ALOMY); assay: as above; conditions: 312 h, pre-emergence, rate 1,000 g/ha, evaluated after 13 days (100=total damage to plant; 0=no damage), read-out: Percentage damage caused to weed species, ALOMY
Outline: as §1

[5] = tested on: Ipomea hederaceae (IPOHE); assay: as above; conditions: Ipomoea hederacea, 312 h; pre-emergence, rate 1,000 g/ha, evaluated after 13 days (100=total damage to plant; 0=no damage); read-out: Percentage damage caused to weed species, IPOHE
Outline: as §1

Solanum nigrum (SOLNI) [6] = assay: as above; conditions: 312 h, pre-emergence, rate 1,000 g/ha, evaluated after 13 days (100=total damage to plant; 0=no damage), read-out: Percentage damage caused to weed species, SOLNI
Outline: as §1

[7] = tested on: Amaranthus retoflexus (AMARE); assay: Post-emergence biological efficacy, glasshouse pot test; conditions: Amaranthus retroflexus, 312 h; Rate 1,000 g/ha; post-emergence spray; evaluated after 13 days (100=total damage to plant; 0=no damage to plant); read-out: Percentage damage caused to weed species, post-emergence, AMARE
Outline: (§2)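 Scored 13 days after spraying on a 0 (no damage) to 100 (total damage) scale. Treatment was a post-emergence spray at 1000 or 250 g/ha, from acetone/water 50:50 plus 0.5% Tween 20, onto 8-day-old plants in soil pots. Growth at 24/16° C, 14 h photoperiod, 65% humidity, watered twice daily.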

[8] = tested on: Echinochloa crus-galli (ECHCG); assay: as above; conditions: 312 h, Rate 1,000 g/ha, post-emergence spray, evaluated after 13 days (100=total damage to plant; 0=no damage to plant), read-out: Percentage damage caused to weed species, post-emergence, ECHCG
Outline: as §2

Setaria faberi (SETFA) [9] = assay: as above; conditions: 312 h, Rate 1,000 g/ha, post-emergence spray, evaluated after 13 days (100=total damage to plant; 0=no damage to plant), read-out: Percentage damage caused to weed species, post-emergence, SETFA
Outline: as §2

[10] = tested on: Alopecurus myosuroides (ALOMY); assay: as above; conditions: 312 h, Rate 1,000 g/ha, post-emergence spray, evaluated after 13 days (100=total damage to plant; 0=no damage to plant), read-out: Percentage damage caused to weed species, post-emergence, ALOMY
Outline: as §2

[11] = tested on: Ipomea hederaceae (IPOHE); assay: as above; conditions: Ipomoea hederacea, 312 h; Rate 1,000 g/ha; post-emergence spray; evaluated after 13 days (100=total damage to plant; 0=no damage to plant); read-out: Percentage damage caused to weed species, post-emergence, IPOHE
Outline: as §2

Solanum nigrum (SOLNI) [12] = assay: as above; conditions: 312 h, Rate 1,000 g/ha, post-emergence spray, evaluated after 13 days (100=total damage to plant; 0=no damage to plant), read-out: Percentage damage caused to weed species, post-emergence, SOLNI
Outline: as §2

| SMILES | pest or weed control at 1000 g/ha [1] [%] | pest or weed control at 1000 g/ha [2] [%] | pest or weed control at 1000 g/ha (Setaria faberi (SETFA) [3]) [%] | pest or weed control at 1000 g/ha [4] [%] | pest or weed control at 1000 g/ha [5] [%] | pest or weed control at 1000 g/ha (Solanum nigrum (SOLNI) [6]) [%] | pest or weed control at 1000 g/ha [7] [%] | pest or weed control at 1000 g/ha [8] [%] | pest or weed control at 1000 g/ha (Setaria faberi (SETFA) [9]) [%] | pest or weed control at 1000 g/ha [10] [%] | pest or weed control at 1000 g/ha [11] [%] | pest or weed control at 1000 g/ha (Solanum nigrum (SOLNI) [12]) [%] |
| --- | --- | --- | --- | --- | --- | --- | --- | --- | --- | --- | --- | --- |
| COC(=O)c1nc(C2CC2)nc(N(CCO)Cc2ccc(Cl)nc2)c1Cl [Compound 157-157, 5-Chloro-4-[N-(6-chloropyrid-3-ylmethyl)-N-2-hydroxyethyl-amino]-2-cyclopropyl-6-methoxycarbonyl-pyrimidine] | 100 | 20 | 30 | 10 | 40 | 100 | 50 | 0 | 0 | 0 | 50 | 30 |
| COCCN(C/C=C/c1ccco1)c1nc(C2CC2)nc(C(=O)OC)c1Cl [Compound 160-256, 5-Chloro-2-cyclopropyl-4-[N-(3-furan-2-yl-prop-2-enyl)-N-2-methoxyethyl-amino]-6-methoxycarbonyl-pyrimidine] | 20 | 0 | 0 | 10 | 10 | 10 | 90 | 0 | 40 | 0 | 50 | 60 |
| COC(=O)c1nc(C2CC2)nc(N(CCC#N)Cc2ccccc2)c1Cl [Compound 161-60, 5-Chloro-4-[N-(2-cyanoethyl)-N-phenylmethyl-amino]-2-cyclopropyl-6-methoxycarbonyl-pyrimidine] | 0 | 0 | 0 | 0 | 0 | 0 | 90 | 50 | 50 | 20 | 70 | 80 |
| COC(=O)c1nc(C2CC2)nc(N(CCC#N)Cc2ccco2)c1Cl [Compound 161-125, 5-Chloro-4-[N-(2-cyanoethyl)-N-furan-2-ylmethyl-amino]-2-cyclo-propyl-6-methoxy-carbonylpyrimidine] | 100 | 20 | 0 | 20 | 80 | 30 | 80 | 10 | 40 | 0 | 40 | 50 |
| CCOC(=O)CCN(Cc1ccccc1)c1nc(C2CC2)nc(C(=O)OC)c1Cl [Compound 162-60, 5-Chloro-2-cyclopropyl-4-[N-(2-ethoxycarbonyl-ethyl)-N-phenylmethyl-amino]-6-methoxycarbonyl-pyrimidine] | 40 | 20 | 0 | 10 | 70 | 20 | 80 | 0 | 0 | 10 | 70 | 60 |
| C=Cc1ccc(-c2c(NCc3ccco3)nc(C3CC3)nc2C(=O)OC)cc1 [Compound 187-125, 2-Cyclopropyl-5-(4-ethenylphenyl)-4-(furan-2-ylmethylamino)-6-methoxycarbonyl-pyrimidine] | 0 | 0 | 0 | 0 | 0 | 0 | 70 | 0 | 0 | 0 | 40 | 50 |
| CC(C)OC(=O)c1nc(C2CC2)nc(NCc2ccco2)c1Cl [Compound 197-125, 5-Chloro-2-cyclo-propyl-4-(2-furanylmethyl-amino)-6-iso-propoxycarbonyl-pyrimidine] | 100 | 70 | 70 | 50 | 100 | 90 | 100 | 70 | 100 | 50 | 100 | 100 |
| CCCOC(=O)c1nc(C2CC2)nc(NCc2ccco2)c1Cl [Compound 198-125, 5-chloro-2-cyclopropyl-4-[(furan-2-ylmethyl)-amino]-6-^npropoxycarbonylpyrimidine] | 100 | 80 | 80 | 40 | 100 | 100 | 100 | 80 | 90 | 40 | 100 | 90 |
| CC(C)COC(=O)c1nc(C2CC2)nc(NCc2ccco2)c1Cl [Compound 199-125, 5-Chloro-2-cyclopropyl-4-(2-furanylmethyl-amino)-6-iso-butoxycarbonyl-pyrimidine] | 100 | 50 | 80 | 40 | 100 | 100 | 100 | 70 | 70 | 20 | 100 | 80 |
| O=C(OCc1ccccc1)c1nc(C2CC2)nc(NCc2ccco2)c1Cl [Compound 200-125] | 100 | 70 | 70 | 50 | 100 | 100 | 100 | 70 | 80 | 30 | 90 | 90 |
| COC(=O)c1nc(Cl)nc(NC2CC2)c1Cl [Compound 207-30, 4-Cyclopropylamino-2,5-dichloro-6-methoxycarbonyl-pyrimidine] | 0 | 0 | 0 | 0 | 0 | 0 | 0 | 0 | 0 | 10 | 20 | 10 |
